From patent publication US10370333B2 (Sanford Burnham Prebys Medical Discovery Institute, priority 2012, dated 2019) come the findings set out here.

One may read the IC50 as the concentration needed to halve the response being measured. A higher IC50 goes with weaker potency in that assay.

In this assay the target is TNAP (Homo sapiens (Human), UniProt P05186). The assay can be described thus: TNAP (PPi) inhibition assay, pyrophosphate as substrate. It is filed as biochemical. As for the experimental part:
Expression plasmids containing a secreted epitope-tagged TNAP were transfected into COS-1 cells for transient expression. The medium was replaced with Opti-MEM 24 h later and serum-free media containing secreted proteins was collected 60 hours after electroporation. The medium was dialyzed against TBS containing 1 mM MgCl2 and […] (to remove phosphate) and filtered through a […] cellulose acetate filter.
To determine the inhibition selectivity for inhibitor candidates, human TNAP, PLAP or IAP were added to microtiter plates followed by addition of the substrate pNPP (0.5 mM) and activity was measured in 1 M DEA-HCl buffer, pH 9.8 or in 1 M Tris-HCl buffer, pH 7.5, containing 1 mM MgCl2 and 20 μM ZnCl2, in the presence of potential inhibitors (0-30 μM). TNAP, PLAP and IAP activities were adjusted to an approximate λA405 nm, equivalent to 1, measured after 30 min. Residual AP activity in the presence of inhibitors was expressed as percentage of the control activity. To investigate the mechanism of inhibition, double reciprocal plots of enzyme activity (expressed as mA405 nm min−1) vs. substrate concentration were constructed, in the presence of various concentrations of added inhibitors (0-30 μM). The y-axis intercepts of the 1/v vs. 1/[S] plots, were then plotted vs. [I] to graphically extract Ki values as the x-intercept in this plot. […] Inhibitors were further tested and sorted based on their kinetic properties at pH 7.4 using PPi, the relevant natural substrate of TNAP. […] Amounts of released phosphate were measured using the Biomol Green Reagent (Biomol Research Laboratories, Inc., Plymouth Meeting, Pa.).

Molecules are shown by their SMILES. Where only a bound is given, the exact number is not on record here.

In the case of `COc1ccc(-c2ccccc2)cc1S(=O)(=O)Nc1cnc2ccccc2c1` [Example II-6, 4-Methoxy-biphenyl-3-sulfonic acid quinolin-3-ylamide], the half-inhibitory concentration (IC50) lay within 100 to 1000 nM.
The figure for `COc1ccc(-c2ccoc2)cc1S(=O)(=O)Nc1cnc2ccccc2c1` [Example II-7, 5-Furan-3-yl-2-methoxy-N-quinolin-3-yl-benzenesulfonamide] is 100 to 1000 nM.
As for `COc1ccc(-c2ccsc2)cc1S(=O)(=O)Nc1cnc2ccccc2c1` [Example II-8, 2-Methoxy-N-quinolin-3-yl-5-thiophen-3-yl-benzenesulfonamide], the IC50 is more than 1000 nM.
The figure for `COc1ccc(-c2ccncc2)cc1S(=O)(=O)Nc1cnc2ccccc2c1` [Example II-9, 2-Methoxy-5-pyridin-4-yl-N-quinolin-3-yl-benzenesulfonamide] is 100 to 1000 nM; for `COc1cc(Cl)ccc1S(=O)(=O)Nc1cnc2ccccc2c1` [Example II-10, 4-Chloro-2-methoxy-N-quinolin-3-yl-benzenesulfonamide] it is less than 100 nM.
For `COc1ccc(S(=O)(=O)Nc2cnc3ccccc3c2)cc1Cl` [Example II-11, 3-Chloro-4-methoxy-N-quinolin-3-yl-benzenesulfonamide] the value was more than 1000 nM; for `COc1c(Cl)cccc1S(=O)(=O)Nc1cnc2ccccc2c1` [Example II-12, 3-Chloro-2-methoxy-N-quinolin-3-yl-benzenesulfonamide], more than 1000 nM; for `COC(=O)c1ccc(OC)c(S(=O)(=O)Nc2cnc3ccccc3c2)c1` [Example II-13, Methyl 4-methoxy-3-(N-(quinolin-3-yl)sulfamoyl)benzoate], less than 100 nM.
For `COc1ccc(C(N)=O)cc1S(=O)(=O)Nc1cnc2ccccc2c1` [Example II-14, 4-Methoxy-3-(quinolin-3-ylsulfamoyl)-benzamide] the value was 100 to 1000 nM; for `CNC(=O)c1ccc(OC)c(S(=O)(=O)Nc2cnc3ccccc3c2)c1` [Example II-15, 4-Methoxy-N-methyl-3-(quinolin-3-ylsulfamoyl)-benzamide], less than 100 nM.
Consider `CCNC(=O)c1ccc(OC)c(S(=O)(=O)Nc2cnc3ccccc3c2)c1` [Example II-16, N-Ethyl-4-methoxy-3-(quinolin-3-ylsulfamoyl)-benzamide], for which the IC50 fell in the range of 100 to 1000 nM.
For `CCCNC(=O)c1ccc(OC)c(S(=O)(=O)Nc2cnc3ccccc3c2)c1` [Example II-17, 4-Methoxy-N-propyl-3-(quinolin-3-ylsulfamoyl)-benzamide] the value was 100 to 1000 nM; for `COc1ccc(C(=O)Nc2ccccc2)cc1S(=O)(=O)Nc1cnc2ccccc2c1` [Example II-18, 4-Methoxy-N-phenyl-3-(quinolin-3-ylsulfamoyl)-benzamide], more than 1000 nM; for `COc1ccc(C(=O)NC2CCCCC2)cc1S(=O)(=O)Nc1cnc2ccccc2c1` [Example II-19, N-Cyclohexyl-4-methoxy-3-(quinolin-3-ylsulfamoyl)-benzamide], more than 1000 nM.
The figure for `COCCNC(=O)c1ccc(OC)c(S(=O)(=O)Nc2cnc3ccccc3c2)c1` [Example II-20, 4-Methoxy-N-(2-methoxy-ethyl)-3-(quinolin-3-ylsulfamoyl)-benzamide] is 100 to 1000 nM.
The figure for `COc1ccc(C(=O)NCCN(C)C)cc1S(=O)(=O)Nc1cnc2ccccc2c1` [Example II-21, N-(2-Dimethylamino-ethyl)-4-methoxy-3-(quinolin-3-ylsulfamoyl)-benzamide] is 100 to 1000 nM.
`COc1ccc(C(=O)N2CCN(C)CC2)cc1S(=O)(=O)Nc1cnc2ccccc2c1` [Example II-22, 2-Methoxy-5-(4-methyl-piperazine-1-carbonyl)-N-quinolin-3-yl-benzenesulfonamide] yielded an IC50 of more than 1000 nM.
Take `COc1ccc(C(=O)N2CCOCC2)cc1S(=O)(=O)Nc1cnc2ccccc2c1` [Example II-23, 2-Methoxy-5-(morpholine-4-carbonyl)-N-quinolin-3-yl-benzenesulfonamide]: the IC50 was in the range of 100 to 1000 nM.
The compound `COc1ccc(-c2cncc(NS(=O)(=O)c3cc(OC)ccc3OC)c2)cc1` [Example III-1] gave an IC50 of less than 100 nM.
The figure for `COc1ccc(-c2cncc(NS(=O)(=O)c3cc(Br)ccc3OC)c2)cc1` [Example III-2, 5-Bromo-2-methoxy-N-[5-(4-methoxy-phenyl)-pyridin-3-yl]-benzenesulfonamide] is 100 to 1000 nM; for `COc1ccc(OC)c(S(=O)(=O)Nc2cncc(-c3ccc(OCc4ccccc4)cc3)c2)c1` [Example III-4, N-(5-(4-(Benzyloxy)phenyl)pyridin-3-yl)-2,5-dimethoxybenzenesulfonamide] it is 100 to 1000 nM.
The figure for `COc1ccc(Br)cc1S(=O)(=O)Nc1cncc(-c2ccc(OCc3ccccc3)cc2)c1` [Example III-5, N-(5-(4-(Benzyloxy)phenyl)pyridin-3-yl)-5-bromo-2-methoxybenzenesulfonamide] is 100 to 1000 nM; for `COc1ccc(Cl)cc1S(=O)(=O)Nc1cncc(-c2ccc(OCc3ccccc3)cc2)c1` [Example III-6, N-(5-(4-(benzyloxy)phenyl)pyridin-3-yl)-5-chloro-2-methoxybenzenesulfonamide] it is 100 to 1000 nM; for `COc1ccc(OC)c(S(=O)(=O)Nc2cncc(-c3ccc(O)cc3)c2)c1` [Example III-7, N-[5-(4-Hydroxy-phenyl)-pyridin-3-yl]-2,5-dimethoxy-benzenesulfonamide] it is less than 100 nM.
Turning to `COc1ccc(Br)cc1S(=O)(=O)Nc1cncc(-c2ccc(O)cc2)c1` [Example III-8, 5-Bromo-N-[5-(4-hydroxy-phenyl)-pyridin-3-yl]-2-methoxy-benzenesulfonamide], the IC50 was less than 100 nM.
For `COc1ccc(OC)c(S(=O)(=O)Nc2cncc(-c3ccc(C)cc3)c2)c1` [Example III-10, 2,5-Dimethoxy-N-(5-p-tolyl-pyridin-3-yl)-benzenesulfonamide] the value was 100 to 1000 nM; for `COc1ccc(Br)cc1S(=O)(=O)Nc1cncc(-c2ccc(C)cc2)c1` [Example III-11, 5-Bromo-2-methoxy-N-(5-p-tolyl-pyridin-3-yl)-benzenesulfonamide], 100 to 1000 nM; for `COc1ccc(OC)c(S(=O)(=O)Nc2cncc(-c3ccc(C(F)(F)F)cc3)c2)c1` [Example III-13, 2,5-Dimethoxy-N-(5-(4-(trifluoromethyl)phenyl)pyridin-3-yl)benzenesulfonamide], 100 to 1000 nM.
For `COc1ccc(Br)cc1S(=O)(=O)Nc1cncc(-c2ccc(C(F)(F)F)cc2)c1` [Example III-14, 5-Bromo-2-methoxy-N-(5-(4-(trifluoromethyl)phenyl)pyridin-3-yl)benzenesulfonamide] the value was 100 to 1000 nM.
For `COc1ccc(Cl)cc1S(=O)(=O)Nc1cncc(-c2ccc(C(F)(F)F)cc2)c1` [Example III-15, 5-Chloro-2-methoxy-N-(5-(4-(trifluoromethyl)phenyl)pyridin-3-yl)benzenesulfonamide] the value was 100 to 1000 nM; for `COc1ccc(OC)c(S(=O)(=O)Nc2cncc(-c3ccc(F)cc3)c2)c1` [Example III-16, N-[5-(4-Fluoro-phenyl)-pyridin-3-yl]-2,5-dimethoxy-benzenesulfonamide], less than 100 nM; for `COc1ccc(Br)cc1S(=O)(=O)Nc1cncc(-c2ccc(F)cc2)c1` [Example III-17, 5-Bromo-N-[5-(4-fluoro-phenyl)-pyridin-3-yl]-2-methoxy-benzenesulfonamide], less than 100 nM.
In the case of `COc1ccc(Cl)cc1S(=O)(=O)Nc1cncc(-c2ccc(F)cc2)c1` [Example III-18, 5-Chloro-N-[5-(4-fluoro-phenyl)-pyridin-3-yl]-2-methoxy-benzenesulfonamide], the IC50 was less than 100 nM.
For `COc1ccc(OC)c(S(=O)(=O)Nc2cncc(-c3ccc(Cl)cc3)c2)c1` [Example III-19, N-[5-(4-Chloro-phenyl)-pyridin-3-yl]-2,5-dimethoxy-benzenesulfonamide] the value was 100 to 1000 nM; for `COc1ccc(Br)cc1S(=O)(=O)Nc1cncc(-c2ccc(Cl)cc2)c1` [Example III-20, 5-Bromo-N-[5-(4-chloro-phenyl)-pyridin-3-yl]-2-methoxy-benzenesulfonamide], 100 to 1000 nM; for `COc1ccc(OC)c(S(=O)(=O)Nc2cncc(-c3ccc(Br)cc3)c2)c1` [Example III-22, N-[5-(4-Bromo-phenyl)-pyridin-3-yl]-2,5-dimethoxy-benzenesulfonamide], 100 to 1000 nM.
Take `COc1ccc(Br)cc1S(=O)(=O)Nc1cncc(-c2ccc(Br)cc2)c1` [Example III-23, 5-Bromo-N-[5-(4-bromo-phenyl)-pyridin-3-yl]-2-methoxy-benzenesulfonamide]: the IC50 is 100 to 1000 nM.
In the case of `COc1ccc(Cl)cc1S(=O)(=O)Nc1cncc(-c2ccc(Br)cc2)c1` [Example III-24, N-[5-(4-Bromo-phenyl)-pyridin-3-yl]-5-chloro-2-methoxy-benzenesulfonamide], the IC50 lay within 100 to 1000 nM.
The figure for `COc1ccc(OC)c(S(=O)(=O)Nc2cncc(-c3ccccc3)c2)c1` [Example III-25, N-(5-Phenyl-pyridin-3-yl)-2,5-Dimethoxy-benzenesulfonamide] is less than 100 nM.
